Source: US11203571B2, “Sulfonamides as modulators of sodium channels” (VERTEX PHARMACEUTICALS INCORPORATED, priority 2013, dated 2021)

How the values were obtained:
human Nav1.8 = human Nav1.8 (Homo sapiens (Human), UniProt Q9Y5Y9); experiment: E-VIPR optical membrane potential assay with electrical stimulation; type: cell-based; settings: HEK cells expressing human Nav1.8
Procedure, shortened: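 HEK cells expressing human Nav1.8 were loaded with CC2-DMPE (8 μM) and DiSBAC6(3) (2.5 μM), then given compound for 20-35 min at room temperature (0.625% DMSO). Cells received a 10-s current-controlled electrical stimulus. Response was the stimulated/baseline 460/580 nm emission ratio (Rf/Ri), with tetracaine (125 μM) as positive control.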

[1] = Human liver microsome assay; type: in vitro ADME; settings: 1 uM substrate, 0.5 mg/mL liver microsome, 2 mM NADPH, 37° C., referenced against time zero control
Procedure, shortened: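 Pooled human liver microsomes (0.5 mg/mL) with 1 uM substrate (0.2% DMSO), 2 mM NADPH, 0.1 M phosphate, shaken 30 min at 37° C. Quenched with cold acetonitrile; parent quantified by LC/MS/MS. Value is % substrate remaining at 30 min versus a time-zero control without NADPH.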

human Nav1.8, sequence (Q9Y5Y9 whole entry): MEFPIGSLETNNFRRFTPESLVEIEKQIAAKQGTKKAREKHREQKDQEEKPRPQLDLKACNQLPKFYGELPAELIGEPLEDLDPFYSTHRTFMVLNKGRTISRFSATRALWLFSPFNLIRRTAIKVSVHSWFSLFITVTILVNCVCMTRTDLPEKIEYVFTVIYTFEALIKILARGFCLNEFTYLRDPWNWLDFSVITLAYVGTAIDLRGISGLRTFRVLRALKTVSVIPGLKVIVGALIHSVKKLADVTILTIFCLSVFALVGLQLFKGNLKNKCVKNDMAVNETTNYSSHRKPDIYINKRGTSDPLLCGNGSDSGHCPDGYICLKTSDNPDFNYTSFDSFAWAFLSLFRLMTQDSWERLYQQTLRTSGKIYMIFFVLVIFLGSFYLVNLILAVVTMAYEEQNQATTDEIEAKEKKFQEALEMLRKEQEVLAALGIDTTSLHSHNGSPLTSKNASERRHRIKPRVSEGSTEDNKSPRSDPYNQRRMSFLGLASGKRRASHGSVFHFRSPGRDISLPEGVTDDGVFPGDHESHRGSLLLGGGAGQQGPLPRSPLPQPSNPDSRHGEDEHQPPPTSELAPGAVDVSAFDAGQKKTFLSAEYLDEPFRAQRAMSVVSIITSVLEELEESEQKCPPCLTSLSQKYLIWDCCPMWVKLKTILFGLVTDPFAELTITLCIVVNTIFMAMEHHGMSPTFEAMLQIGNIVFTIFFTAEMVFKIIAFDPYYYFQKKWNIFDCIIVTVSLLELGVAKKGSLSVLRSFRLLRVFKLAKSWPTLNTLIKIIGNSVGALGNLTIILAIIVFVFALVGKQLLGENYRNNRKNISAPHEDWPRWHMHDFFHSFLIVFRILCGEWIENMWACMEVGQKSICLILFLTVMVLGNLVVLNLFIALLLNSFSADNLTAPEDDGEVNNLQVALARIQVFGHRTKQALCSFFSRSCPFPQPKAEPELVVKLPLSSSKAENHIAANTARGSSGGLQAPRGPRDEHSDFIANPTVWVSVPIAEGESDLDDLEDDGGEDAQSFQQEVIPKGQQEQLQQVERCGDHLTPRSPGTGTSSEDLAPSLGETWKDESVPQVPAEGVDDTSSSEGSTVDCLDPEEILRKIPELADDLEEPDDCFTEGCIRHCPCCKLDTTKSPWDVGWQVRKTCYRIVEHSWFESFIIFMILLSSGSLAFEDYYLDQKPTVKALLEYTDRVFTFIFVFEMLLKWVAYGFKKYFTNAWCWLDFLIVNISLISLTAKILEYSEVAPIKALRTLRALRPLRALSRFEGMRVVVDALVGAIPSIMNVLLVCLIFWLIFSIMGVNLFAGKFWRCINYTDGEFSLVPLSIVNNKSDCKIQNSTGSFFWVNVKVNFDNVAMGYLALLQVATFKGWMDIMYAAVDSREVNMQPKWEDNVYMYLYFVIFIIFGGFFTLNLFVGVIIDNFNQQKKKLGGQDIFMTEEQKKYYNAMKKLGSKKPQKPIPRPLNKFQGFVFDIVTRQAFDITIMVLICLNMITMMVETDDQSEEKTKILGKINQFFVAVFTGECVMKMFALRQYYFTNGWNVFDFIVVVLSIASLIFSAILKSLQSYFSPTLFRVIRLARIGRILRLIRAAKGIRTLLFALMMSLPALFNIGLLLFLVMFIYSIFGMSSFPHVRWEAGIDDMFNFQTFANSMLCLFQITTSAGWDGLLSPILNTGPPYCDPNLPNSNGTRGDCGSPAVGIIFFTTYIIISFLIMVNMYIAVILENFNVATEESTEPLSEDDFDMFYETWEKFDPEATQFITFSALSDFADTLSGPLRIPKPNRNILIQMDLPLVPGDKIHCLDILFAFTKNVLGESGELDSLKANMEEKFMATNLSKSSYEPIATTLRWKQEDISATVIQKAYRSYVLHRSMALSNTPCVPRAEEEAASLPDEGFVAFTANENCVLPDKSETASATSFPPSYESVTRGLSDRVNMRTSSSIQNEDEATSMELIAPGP

SMILES	IC50 (human Nav1.8) [nM]	HLM: percent unchanged after 30 min [1] [%]
NS(=O)(=O)c1cccc(NC(=O)c2cc(C(F)(F)F)ccc2Oc2ccc(Cl)cc2)c1 [Compound 24, 2-(4-chlorophenoxy)-N-(3-sulfamoylphenyl)-5-(trifluoromethyl)benzamide]	30	102
COc1ccc(Oc2cc(OC(F)(F)F)ccc2C(=O)Nc2cccc(S(N)(=O)=O)c2)c(Cl)c1 [Compound 62, 2-(2-chloro-4-methoxyphenoxy)-N-(3-sulfamoylphenyl)-4-(trifluoromethoxy)benzamide]	16	81
COc1ccccc1Oc1cc(C(F)(F)F)ccc1C(=O)Nc1cccc(S(N)(=O)=O)c1 [Compound 44, 2-(2-methoxyphenoxy)-N-(3-sulfamoylphenyl)-4-(trifluoromethyl)benzamide]	20	79
COc1c(F)cccc1Oc1cc(C(F)(F)F)ccc1C(=O)Nc1cccc(S(N)(=O)=O)c1 [Compound 52, 2-(3-fluoro-2-methoxyphenoxy)-N-(3-sulfamoylphenyl)-4-(trifluoromethyl)benzamide]	11	81
NS(=O)(=O)c1cccc(NC(=O)c2cc(Cl)ccc2Oc2ccc(F)cc2)c1 [Compound 5, 5-chloro-2-(4-fluorophenoxy)-N-(3-sulfamoylphenyl)benzamide]	21	107
COc1cc(F)ccc1Oc1cc(C#N)ccc1C(=O)Nc1cccc(S(N)(=O)=O)c1 [Compound 10, 4-cyano-2-(4-fluoro-2-methoxyphenoxy)-N-(3-sulfamoylphenyl)benzamide]	20	86
NS(=O)(=O)c1cccc(NC(=O)c2ccc(C(F)(F)F)cc2Oc2ccc(OC(F)(F)F)cc2)c1 [Compound 51, N-(3-sulfamoylphenyl)-2-(4-(trifluoromethoxy)phenoxy)-4-(trifluoromethyl)benzamide]	14	89
COc1ccc(Oc2cc(C(F)(F)F)ccc2C(=O)Nc2cccc(S(N)(=O)=O)c2)c(C)c1 [Compound 49, 2-(4-methoxy-2-methylphenoxy)-N-(3-sulfamoylphenyl)-4-(trifluoromethyl)benzamide]	12	57
CCCOc1ccccc1Oc1cc(C(F)(F)F)ccc1C(=O)Nc1cccc(S(N)(=O)=O)c1 [Compound 46, 2-(2-propoxyphenoxy)-N-(3-sulfamoylphenyl)-4-(trifluoromethyl)benzamide]	14	67
COc1cc(F)ccc1Oc1cc(C(F)(F)C(F)(F)F)ccc1C(=O)Nc1cccc(S(N)(=O)=O)c1 [Compound 70, 2-(4-fluoro-2-methoxyphenoxy)-4-(perfluoroethyl)-N-(3-sulfamoylphenyl)benzamide]	13	87
NS(=O)(=O)c1cccc(NC(=O)c2ccc(C(F)(F)F)cc2Oc2ccc(F)cc2)c1 [Compound 1, 2-(4-fluorophenoxy)-N-(3-sulfamoylphenyl)-4-(trifluoromethyl)benzamide]	14	83
COc1ccc(Oc2ccc(C(F)(F)F)cc2C(=O)Nc2cccc(S(N)(=O)=O)c2)cc1F [Compound 28, 2-(3-fluoro-4-methoxyphenoxy)-N-(3-sulfamoylphenyl)-5-(trifluoromethyl)benzamide]	16	92
NS(=O)(=O)c1cccc(NC(=O)c2ccc(C(F)(F)C(F)(F)F)cc2Oc2ccc(F)cc2)c1 [Compound 69, 2-(4-fluorophenoxy)-4-(perfluoroethyl)-N-(3-sulfamoylphenyl)benzamide]	26	110
Cc1cc(C(=O)Nc2cccc(S(N)(=O)=O)c2)c(Oc2ccc(F)cc2)cc1Cl [Compound 7, 4-chloro-2-(4-fluorophenoxy)-5-methyl-N-(3-sulfamoylphenyl)benzamide]	12	78
CCOc1ccc(Oc2ccc(C(F)(F)F)cc2C(=O)Nc2cccc(S(N)(=O)=O)c2)cc1 [Compound 23, 2-(4-ethoxyphenoxy)-N-(3-sulfamoylphenyl)-5-(trifluoromethyl)benzamide]	14	75
NS(=O)(=O)c1cccc(NC(=O)c2ccc(C(F)(F)F)cc2Oc2ccccc2Cl)c1 [Compound 73, 2-(2-chlorophenoxy)-N-(3-sulfamoylphenyl)-4-(trifluoromethyl)benzamide]	26	95
COc1ccc(Oc2cc(C(F)(F)F)ccc2C(=O)Nc2cccc(S(N)(=O)=O)c2)c(Cl)c1 [Compound 48, 2-(2-chloro-4-methoxyphenoxy)-N-(3-sulfamoylphenyl)-4-(trifluoromethyl)benzamide]	10	68
CCOc1ccc(Oc2cc(C(F)(F)F)ccc2C(=O)Nc2cccc(S(N)(=O)=O)c2)cc1 [Compound 45, 2-(4-ethoxyphenoxy)-N-(3-sulfamoylphenyl)-4-(trifluoromethyl)benzamide]	21	72

The next lines start with the values.

IC50 (human Nav1.8) [nM]	HLM: percent unchanged after 30 min [1] [%]	SMILES
7	98	Cc1cc(F)ccc1Oc1cc(C(F)(F)F)ccc1C(=O)Nc1cccc(S(N)(=O)=O)c1 [Compound 18, 2-(4-fluoro-2-methylphenoxy)-N-(3-sulfamoylphenyl)-4-(trifluoromethyl)benzamide]
8	104	NS(=O)(=O)c1cccc(NC(=O)c2cc(Cl)c(Cl)cc2Oc2ccc(F)cc2)c1 [Compound 78, 4,5-dichloro-2-(4-fluorophenoxy)-N-(3-sulfamoylphenyl)benzamide]
9	92	NS(=O)(=O)c1cccc(NC(=O)c2c(Oc3ccc(OC(F)(F)F)cc3)cccc2C(F)(F)F)c1 [Compound 60, N-(3-sulfamoylphenyl)-2-(4-(trifluoromethoxy)phenoxy)-6-(trifluoromethyl)benzamide]
7	89	COc1c(Cl)cccc1Oc1cc(OC(F)(F)F)ccc1C(=O)Nc1cccc(S(N)(=O)=O)c1 [Compound 66, 2-(3-chloro-2-methoxyphenoxy)-N-(3-sulfamoylphenyl)-4-(trifluoromethoxy)benzamide]
4	102	NS(=O)(=O)c1cccc(NC(=O)c2c(Cl)cc(Cl)cc2Oc2ccc(OC(F)(F)F)cc2)c1 [Compound 97, 2,4-dichloro-N-(3-sulfamoylphenyl)-6-(4-(trifluoromethoxy)phenoxy)benzamide]
4	96	Cc1cc(F)ccc1Oc1ccc(Cl)cc1C(=O)Nc1cccc(S(N)(=O)=O)c1 [Compound 20, 5-chloro-2-(4-fluoro-2-methylphenoxy)-N-(3-sulfamoylphenyl)benzamide]
10	84	COc1cc(Cl)ccc1Oc1cc(C(F)(F)F)ccc1C(=O)Nc1cccc(S(N)(=O)=O)c1 [Compound 42, 2-(4-chloro-2-methoxyphenoxy)-N-(3-sulfamoylphenyl)-4-(trifluoromethyl)benzamide]
5	63	COc1ccc(Oc2cc(Cl)cc(Cl)c2C(=O)Nc2cccc(S(N)(=O)=O)c2)c(F)c1 [Compound 99, 2,4-dichloro-6-(2-fluoro-4-methoxyphenoxy)-N-(3-sulfamoylphenyl)benzamide]
10	104	NS(=O)(=O)c1cccc(NC(=O)c2cc(C(F)(F)F)ccc2Oc2ccc(OC(F)(F)F)cc2)c1 [Compound 39, N-(3-sulfamoylphenyl)-2-(4-(trifluoromethoxy)phenoxy)-5-(trifluoromethyl)benzamide]
8	88	COc1ccc(Oc2cc(Cl)c(Cl)cc2C(=O)Nc2cccc(S(N)(=O)=O)c2)c(F)c1 [Compound 81, 4,5-dichloro-2-(2-fluoro-4-methoxyphenoxy)-N-(3-sulfamoylphenyl)benzamide]
6	107	Cc1cc(Cl)ccc1Oc1cccc(C(F)(F)F)c1C(=O)Nc1cccc(S(N)(=O)=O)c1 [Compound 58, 2-(4-chloro-2-methylphenoxy)-N-(3-sulfamoylphenyl)-6-(trifluoromethyl)benzamide]
6	77	COc1ccc(Oc2cc(Cl)c(Cl)cc2C(=O)Nc2cccc(S(N)(=O)=O)c2)c(Cl)c1 [Compound 82, 4,5-dichloro-2-(2-chloro-4-methoxyphenoxy)-N-(3-sulfamoylphenyl)benzamide]
